Values joined by “and” are separate entries in the source; they are usually repeats but may differ in a detail not shown here. Equal entries are not always repeated. “Also recorded” adds a separate entry of the source.
Experiments:
[1] = test system: CSQ heart failure mice; assay: Echocardiography-derived fractional shortening in CSQ heart failure mice after 28 days of subcutaneous minipump infusion; format: in vivo, mouse; conditions: for cardioprotection in the CSQ model (in words) / effect on echocardiography-derived FS / cardiac contractile function versus normal saline (in words): 3.3 μM, 28 days of infusion, CSQ mice; for FS in % in CSQ Mice: at 3.3 μM, subcutaneous Alzet minipump infusion, 28 days, vehicle control 13.78 ± 1.19% (n = 16)
From the text: Two of the phosphonates, 4 and 9, were able to cause an improved FS as compared to vehicle (FIG. 1, Table 1) and in comparison to the reference nucleotide 3. […] Thus, in the saturated phosphonate series, the orientation of the phosphorous relative to the methanocarba ring was somewhat structurally permissive, although inclusion of an olefin in the spacer prevented the cardioprotective action. In 11, one OH group of the phosphonate has been replaced with CH3. This reduces the overall charge on the molecule and is intended to make it more bioavailable. Evidently, the binding site of the receptor requires both oxygens for the most favorable improvement in FS. Therefore, as summarized in FIG. 1, the most significant improvement in FS was associated with the saturated homologues containing a 2-Cl substitution and an unmodified phosphonate group, 4 and 9.
Compound 3 and its analogues were dissolved in phosphate-buffered saline, pH=7.4 at 3.3 μM (200 μL total volume), filtered for sterility for in vivo administration at 6 μL per day for 28 days via a mini-osmotic pump (Alzet) in the CSQ mice. Intact heart function in vivo was assessed by echocardiography following infusion of nucleotide- or vehicle

[2] = Stability in aqueous medium at pH 1.5 (simulated stomach acid); format: physicochemical; conditions: pH 1.5, over 24 hours
From the text: (§1) The synthetic nucleotide analogue 3 activates the native cardiac P2X receptor, as indicated in electrophysiological experiments with normal cardiac myocytes and those that overexpress CSQ and based on its in vivo ability to improve the heart failure phenotype of these animals. The rigid carbocyclic ring system contained in this derivative stabilizes nucleotides toward the action of nucleotidases. […] In the present study, we have synthesized fully hydrolysis-resistant adenosine monophosphate derivatives based on phosphonate linkages.

[3] = test system: CSQ myocyte; conditions: similar to that by compound 1, characteristic of the P2X4 receptor; cited from earlier work
[4] = biological target: T1, human P2Y1 receptor (Homo sapiens, UniProt P47900); assay: FLIPR assay of calcium flux in 1321N1 astrocytoma cells stably expressing the human P2Y1 receptor; format: cell-based
T1 construct: T. K. Harden, University of North Carolina School of Medicine; host or cells: 1321N1 human astrocytoma cells
Experimental: The phosphonate derivatives were tested in a FLIPR assay of calcium flux induced in 1321N1 astrocytoma cells stably expressing the human P2Y1 receptor.
Cells were grown overnight in 100 ml of medium in 96-well flatbottom plates at 37° C. at 5% CO2 or until they reached ˜80% confluency. The calcium-4 assay kit (Molecular Devices, Sunnyvale, Calif.) was used as directed with no washing of cells. Cells were loaded with 40 mL dye with probenecid in each well and incubated for 1 h at rt. The compound plate was prepared with dilutions of various compounds in Hank's Buffer at pH 7.2. Samples were run in duplicate with a FLIPR-Tetra (Molecular Devices) at rt. Cell fluorescence (excitation=485 nm; emission=525 nm) was monitored following exposure to a compound. Increases in intracellular calcium are reported as the maximum fluorescence value after exposure minus the basal fluorescence value before exposure.

[5] = test system: aorta ring preparations; conditions: cited from earlier work
[6] = biological target: T2, hP2Y1 receptor (Homo sapiens, UniProt P47900); conditions: initial characterization, previously reported; read-out: EC50, hP2Y1 receptor agonist, PLC; cited from earlier work
T2 construct: host or cells: said to be the same cell line as the calcium assay (1321N1 astrocytoma cells expressing hP2Y1)

[7] = Hydrolysis on incubation at 37° C. with mammalian cell membranes (1321N1 astrocytoma cells); format: in vitro ADME; conditions: 1321N1 astrocytoma cell membranes
From the text: as §1
Further, the 5′-phosphate 3 and the prodrug 9a (MRS2944) are stable to acidic conditions representative of stomach acid (pH 1.5). […] Without being held to theory, it is believed that the prodrug approach will allow the masked drug to pass through the stomach to be absorbed intact in the intestines, and for the charged phosphoryl group to remain intact until the free drug reaches the site of action in the heart. Therefore, the stable phosphonates would be suitable in this scheme. The cleavage of the prodrug derivatives is to occur in circulation prior to reaching the tissue site of action, because intracellular internalization would be undesirable. Therefore, many of the prodrug schemes that aim for penetration of the masked drug into the cells, i.e. for antiviral or anticancer application of nucleotide derivatives, would likely not be suitable here.

[8] = test system: CSQ-overexpressing mouse; conditions: cited from earlier work
[9] = test system: control 1321N1 astrocytoma cells; assay: Intracellular Ca2+ response in control 1321N1 astrocytoma cells; format: cell-based, human; conditions: 10 μM, untransfected control 1321N1 astrocytoma cells
[10] = test system: CSQ heart failure mice; assay: Echocardiography (FS, LV wall thickness) in CSQ heart failure mice after 14 days of infusion; conditions: for cardioprotection in CSQ mice (in words) / effect on LV fractional shortening versus normal saline (in words): 14 days (two-week) infusion; for FS in % in CSQ Mice: at 10μM, 14 days of infusion, vehicle control 7.13 ± 1.49% (n = 4), phenotypically more severe CSQ mice than in Table 1; for prevention of LV wall thinning in heart failure (in words): two-week infusion
[11] = test system: mouse cardiac myocytes; conditions: voltage clamp; cited from earlier work
[12] = 2-week infusion, CSQ mice, NS-infused 0.450±0.007 mm, P<0.05

T1 sequence (P47900 whole entry): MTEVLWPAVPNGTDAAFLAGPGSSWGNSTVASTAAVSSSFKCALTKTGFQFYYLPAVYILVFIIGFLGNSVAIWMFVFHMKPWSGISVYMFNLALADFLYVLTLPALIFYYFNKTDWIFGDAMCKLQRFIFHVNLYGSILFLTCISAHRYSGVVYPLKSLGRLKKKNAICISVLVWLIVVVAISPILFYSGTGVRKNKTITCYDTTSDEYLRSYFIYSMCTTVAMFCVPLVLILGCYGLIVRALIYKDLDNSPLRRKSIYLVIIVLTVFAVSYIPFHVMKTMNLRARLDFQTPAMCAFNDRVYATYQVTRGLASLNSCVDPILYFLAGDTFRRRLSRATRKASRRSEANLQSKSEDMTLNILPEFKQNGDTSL
T2 sequence (P47900 whole entry): as above

Compound: Nc1nc(Cl)nc2c1ncn2[C@H]1[C@H](O)[C@H](O)C2(CCP(=O)(O)O)C[C@H]12 (stereo partly drawn) [Compound 9]
- cardioprotection in the CSQ model (in words) [1]: clearly protective in vivo
- effect on echocardiography-derived FS / cardiac contractile function versus normal saline (in words) [1]: improved FS; also recorded: able to enhance cardiac contractile function
- FS in % in CSQ Mice [1]: 19.26% and 19.26 ± 1.23%

Compound: Nc1nc(Cl)nc2c1ncn2[C@H]1[C@H](O)[C@H](O)C2(COP(=O)(O)O)C[C@H]12 (stereo partly drawn) [Compound 3, (1′S, 2′R,3′S,4′R,5′S)-4-(6-amino-2-chloro-9H-purin-9-yl)-1-[phosphoryloxymethyl]bicyclo[3.1.0]hexane-2,3-diol]
- stability to acidic conditions [2]: stable
- current in the CSQ myocyte [3]: induced a current
- Emax ([4]; 1321-N1, read-out: maximal effect relative to the full agonist 2-MeSADP, hP2Y1 calcium flux): ~80%
- EC50 ([4]; 1321N1 cells stably expressing hP2Y1, FLIPR-Tetra, n=3, read-out: EC50, Ca2+ flux, hP2Y1 receptor): 722 ± 55 nM
- vasodilator action [5]: inability to dilate aortic rings; also recorded: devoid of any vasodilator action
- FS in % in CSQ Mice [1]: 15.47 ± 1.15%
- EC50 [6]: 1890 nM
- hydrolysis in the presence of mammalian cell membranes [7]: considerable hydrolysis
- longevity compared to vehicle-injected mice ([8]; Alzet mini-osmotic pump): significantly increased longevity
- cross-section area of the cardiac myocytes ([8]; chronic administration): decreases
- heart weight/body weight ratio ([8]; chronic administration): decreases
- hypertrophic and heart failure phenotype ([8]; chronically administered): rescued the hypertrophic and heart failure phenotype

Compound: CSc1nc(N)c2ncn([C@@H]3O[C@H](COP(=O)(O)OP(=O)(O)O)[C@@H](O)[C@H]3O)c2n1 [Compound 2-MeSADP, 2-MeSADP]
- change in intracellular Ca2+ in control cells [9]: no change in intracellular Ca^2+

Compound: CCOP(=O)(CC12C[C@@H]1[C@@H](n1cnc3c(N)nc(Cl)nc31)[C@H](O)[C@@H]2O)OCC (stereo partly drawn) [Compound 9a, Diethyl-(1′S,2′R,3′S,4′R,5′S)-4′-(6-amino-2-chloropurin-9-yl)-2′,3′-(hydroxy)-bicyclo[3.1.0]hexane phosphonate]
- stability to acidic conditions [2]: stable
- cardioprotection in CSQ mice (in words) ([10]; CSQ mice): not protective
- effect on LV fractional shortening versus normal saline (in words) ([10]; CSQ mice): did not improve FS
- FS in % in CSQ Mice [10]: 8.58 ± 2.09%
- prevention of LV wall thinning in heart failure (in words) ([10]; CSQ mice): did not improve FS or prevent LV wall thinning
- hydrolysis in the presence of mammalian cell membranes [7]: considerable hydrolysis

Compound: Nc1ncnc2c1ncn2[C@H]1[C@H](O)[C@H](O)C2(CP(=O)(O)O)C[C@H]12 (stereo partly drawn) [Compound 5, (1′S,2′R,3′S,4′R,5′S)-4′-(6-Aminopurin-9-yl)-2′,3′-(dihydroxy)-1′-(phosphonomethylene)-bicyclo[3.1.0]hexane]
- FS in % in CSQ Mice [1]: 16.23 ± 0.93%

Compound: CNc1nc(I)nc2c1ncn2[C@H]1C[C@H](OP(=O)(O)O)[C@]2(COP(=O)(O)O)C[C@H]12 [MRS2500]
- block of the membrane current evoked by 3 [11]: could not block the membrane current evoked by 3

Compound: Nc1nc(Cl)nc2c1ncn2[C@H]1[C@H](O)[C@H](O)C2(/C=C/P(=O)(O)O)C[C@H]12 (stereo partly drawn) [Compound 7, (1′S,2′R,3′S,4′R,5′S)-4′-(6-Amino-2-chloropurin-9-yl)-2′,3′-(dihydroxy)-1′-[(E)-phosphonoethenyl]-bicyclo[3.1.0]-hexane]
- effect on LV fractional shortening versus normal saline (in words) ([10]; CSQ mice): did not improve FS
- prevention of LV wall thinning in heart failure (in words) ([10]; CSQ mice): did not improve FS or prevent LV wall thinning
- cardioprotection in the CSQ model (in words) [1]: not protective
- effect on echocardiography-derived FS / cardiac contractile function versus normal saline (in words) [1]: lower FS values
- FS in % in CSQ Mice [1]: 12.12 ± 1.2%

Compound: Nc1nc(Cl)nc2c1ncn2[C@H]1[C@H](O)[C@H](O)C2(CP(=O)(O)O)C[C@H]12 (stereo partly drawn) [Compound 4, (1′S,2′R,3′S,4′R,5′S)-4′-(6-Amino-2-chloropurin-9-yl)-2′,3′-(dihydroxy)-1′-(phosphonomethylene)-bicyclo[3.1.0]hexane]
- cardioprotection in the CSQ model (in words) [1]: active
- effect on echocardiography-derived FS / cardiac contractile function versus normal saline (in words) [1]: increased shortening of both the septum and left ventricular (LV) free wall; also recorded: able to improve in vivo cardiac contractile performance; also recorded: improved echocardiographically derived FS
- FS in % in CSQ Mice [1]: 20.25% and 20.25 ± 1.19%

Compound: Nc1nc(Cl)nc2c1ncn2[C@H]1[C@H](O)[C@H](O)C2(CSP(=O)(O)O)C[C@H]12 (stereo partly drawn) [Compound 4a]
- LV posterior wall thickness [10, 12]: 0.493±0.016 mm
- LV septal wall thickness [10, 12]: 0.492±0.012 mm
- cardioprotection in CSQ mice (in words) ([10]; CSQ mice): could protect the CSQ mice
- FS in % in CSQ Mice [10]: 14.33 ± 3.77%

Compound: Nc1nc(I)nc2c1ncn2[C@H]1[C@H](O)[C@H](O)C2(CP(=O)(O)O)C[C@H]12 (stereo partly drawn) [Compound 7a, (1′S,2′R,3′S,4′R,5′S)-4′-(6-Amino-2-iodoropurin-9-yl)-2′,3′-(dihydroxy)-1′-(phosphonomethylene)-bicyclo[3.1.0]hexane]
- cardioprotection in CSQ mice (in words) ([10]; CSQ mice): abolished protection; also recorded: not protective
- effect on LV fractional shortening versus normal saline (in words) ([10]; CSQ mice): did not improve FS; also recorded: lower FS values
- FS in % in CSQ Mice [10]: 10.33 ± 1.77%
- prevention of LV wall thinning in heart failure (in words) ([10]; CSQ mice): did not improve FS or prevent LV wall thinning

Compound: Nc1ncnc2c1ncn2[C@H]1[C@H](O)[C@H](O)C2(/C=C/P(=O)(O)O)C[C@H]12 (stereo partly drawn) [Compound 8, (1′S,2′R,3′S,4′R,5′S)-4′-(6-Aminopurin-9-yl)-2′,3′-(dihydroxy)-1′-[(E)-phosphonoethenyl]-bicyclo[3.1.0]hexane]
- cardioprotection in the CSQ model (in words) [1]: not protective
- effect on echocardiography-derived FS / cardiac contractile function versus normal saline (in words) [1]: lower FS values
- FS in % in CSQ Mice [1]: 13.88 ± 2.12%

Compound: Nc1ncnc2c1ncn2[C@H]1[C@H](O)[C@H](O)C2(CCP(=O)(O)O)C[C@H]12 (stereo partly drawn) [Compound 10]
- cardioprotection in the CSQ model (in words) [1]: not protective
- effect on echocardiography-derived FS / cardiac contractile function versus normal saline (in words) [1]: lower FS values; also recorded: did not improve the contractile function
- FS in % in CSQ Mice [1]: 11.15 ± 1.44%

Compound: CP(=O)(O)CC12C[C@@H]1[C@@H](n1cnc3c(N)nc(Cl)nc31)[C@H](O)[C@@H]2O (stereo partly drawn) [Compound 11, (1′S,2′R,3′S,4′R,5′S)-4′-(6-Amino-2-chloropurin-9-yl)-2′,3′-dihydroxy-1′-(methylphosphonicacid)-bicyclo[3.1.0]hexane]
- effect on echocardiography-derived FS / cardiac contractile function versus normal saline (in words) [1]: lower FS values
- FS in % in CSQ Mice [1]: 15.0 ± 1.2%

— patent US9526739B2, “Compositions and methods to treat cardiac diseases” (University of Connecticut, priority 2010, dated 2016)
